The subject of one assay is MCH receptors. Description: MCH receptor activity class (method not given). The note with it: MCH receptor activity class 1-3 (percent of control at 10^-7 M or IC50).
In the case of `CN(C)c1cc(N[C@H]2CC[C@@H](CNC(=O)Nc3ccccc3C(C)(C)C)CC2)nc2ccccc12` [compound 2384], the class was 1 (Class 1: The value of percent of control at 10^−7 M was less than 40% or the value of IC50 was less than 50 nM.). On to `CCc1ccccc1NC(=O)NC[C@H]1CC[C@@H](Nc2nc3c(c(N(C)C)n2)CCCC3)CC1` [compound 2469], for which the class is 3 (Class 3 The value of percent of control at 10^−7 M was more than 60% or the value of IC50 was more than 200 nM.).

The same assay, now with this note: MCH receptor; class by percent of control at 10^-7 M or IC50.
For `COc1ccc(OC)c(NC(=S)N[C@H]2CC[C@@H](Nc3nc4c(c(N(C)C)n3)CCCC4)CC2)c1` [compound 1973], the class is recorded as 3 (Class 3 The value of percent of control at 10^−7 M was more than 60% or the value of IC50 was more than 200 nM.). Same read-out and setting: the same measure for `CN(C)c1cc(N[C@H]2CC[C@@H](NC(=O)c3csc4ccccc34)CC2)nc2ccccc12` [compound 91]: 3 (Class 3 The value of percent of control at 10^−7 M was more than 60% or the value of IC50 was more than 200 nM.).

`Cc1cc(C(=O)NC[C@H]2CC[C@@H](Nc3cc(N(C)C)c4ccccc4n3)CC2)c(C(F)(F)F)o1` [compound 197]: the class is 3 (Class 3 The value of percent of control at 10^−7 M was more than 60% or the value of IC50 was more than 200 nM.). The same measure, in the same setting: the same measure for `CN(C)c1nc(N[C@H]2CC[C@@H](NC(=S)NC(=O)c3ccco3)CC2)nc2c1CCCC2` [compound 2038]: 3 (Class 3 The value of percent of control at 10^−7 M was more than 60% or the value of IC50 was more than 200 nM.).

Staying with this assay, now noted: class 1-3 by percent of control at 10^-7 M or IC50.
For `Cc1cc(C(=O)N[C@H]2CC[C@@H](Nc3nc4c(c(N(C)C)n3)CCCC4)CC2)ccc1Br` [compound 493], the class is 2 (Class 2: The value of percent of control at 10^−7 M was from 40% to 60% or the value of IC′50 was from 50 nM to 200 nM.).

The assay is the same for the next values; noted with them: class by percent of control at 10^-7 M or IC50.
As to `Cc1ccc(NC(=O)NC[C@H]2CC[C@@H](Nc3nc4c(c(N(C)C)n3)CCCC4)CC2)cc1` [compound 2487], the class is recorded as 3 (Class 3 The value of percent of control at 10^−7 M was more than 60% or the value of IC50 was more than 200 nM.). Same read-out and setting: the same measure for `CN(C)c1cc(N[C@H]2CC[C@@H](CNCCCOc3ccccc3)CC2)nc2ccccc12` [compound 1471]: 3 (Class 3 The value of percent of control at 10^−7 M was more than 60% or the value of IC50 was more than 200 nM.); for `CN(C)c1cc(N[C@H]2CC[C@@H](NC(=O)COc3c(Cl)cc(Cl)cc3Cl)CC2)nc2ccccc12` [compound 747]: 2 (Class 2: The value of percent of control at 10^−7 M was from 40% to 60% or the value of IC′50 was from 50 nM to 200 nM.); for `CN(C)c1cc(N[C@H]2CC[C@@H](NC(=O)c3ccc(I)o3)CC2)nc2ccccc12` [compound 680, N-(cis-4-{[4-(dimethylamino)quinolin-2-yl]amino}cyclohexyl)-5-iodo-2-furamide]: 1 (Class 1: The value of percent of control at 10^−7 M was less than 40% or the value of IC50 was less than 50 nM.). Consider `COc1ccc(NC(=S)N[C@H]2CC[C@@H](Nc3nccc(N(C)C)n3)CC2)cc1OC` [compound 2266], for which the class was 2 (Class 2: The value of percent of control at 10^−7 M was from 40% to 60% or the value of IC′50 was from 50 nM to 200 nM.).

Regarding `CN(C)c1cc(N[C@H]2CC[C@@H](CNCc3ccccc3OC(F)(F)F)CC2)nc2ccccc12` [compound 1168], the class was 3 (Class 3 The value of percent of control at 10^−7 M was more than 60% or the value of IC50 was more than 200 nM.). Still for that read-out and setting: the same measure for `CN(C)c1nc(N[C@H]2CC[C@@H](NC(=O)Cc3ccc(Cl)c(Cl)c3)CC2)nc2c1CCCC2` [compound 975]: 1 (Class 1: The value of percent of control at 10^−7 M was less than 40% or the value of IC50 was less than 50 nM.). On the same count and under the same terms, the same measure for `Cc1cc([N+](=O)[O-])ccc1NC(=O)N[C@H]1CC[C@@H](Nc2cc(N(C)C)c3ccccc3n2)CC1` [compound 2144]: 3 (Class 3 The value of percent of control at 10^−7 M was more than 60% or the value of IC50 was more than 200 nM.); for `CN(C)c1ccnc(N[C@H]2CC[C@@H](NC(=O)/C=C/c3ccc([N+](=O)[O-])cc3)CC2)n1` [compound 297]: 3 (Class 3 The value of percent of control at 10^−7 M was more than 60% or the value of IC50 was more than 200 nM.); for `CN(C)c1cc(N[C@H]2CC[C@@H](NC(=O)NC(c3ccccc3)c3ccccc3)CC2)nc2ccccc12` [compound 2119, N-(cis-4-{[4-(dimethylamino)quinolin-2-yl]amino}cyclohexyl)-N′-(diphenylmethyl)urea]: 2 (Class 2: The value of percent of control at 10^−7 M was from 40% to 60% or the value of IC′50 was from 50 nM to 200 nM.). On the same count and under the same terms, the same measure for `CN(C)c1ccnc(N[C@H]2CC[C@@H](NC(=O)NCc3ccc(F)cc3)CC2)n1` [compound 2245]: 3 (Class 3 The value of percent of control at 10^−7 M was more than 60% or the value of IC50 was more than 200 nM.). `COc1cc(C)c(CNC[C@H]2CC[C@@H](Nc3nc4c(c(N(C)C)n3)CCCC4)CC2)cc1C` [compound 1437]: the class was 2 (Class 2: The value of percent of control at 10^−7 M was from 40% to 60% or the value of IC′50 was from 50 nM to 200 nM.). Consider `Cc1ccc(-c2ccc(C(=O)NC[C@H]3CC[C@@H](Nc4cc(N(C)C)c5ccccc5n4)CC3)o2)c([N+](=O)[O-])c1` [compound 801], for which the class was 3 (Class 3 The value of percent of control at 10^−7 M was more than 60% or the value of IC50 was more than 200 nM.).

Still in this assay, the particulars now being: class by percent of control at 10^−7 M or IC50.
In the case of `Cc1cnc(N[C@H]2CC[C@@H](C(=O)N[C@H](C)c3ccc(Cl)cc3)CC2)nc1N(C)C` [compound 2778, cis-N-[(1R)-1-(4-chlorophenyl)ethyl]-4-{[4-(dimethylamino)-5-methylpyrimidin-2-yl]amino}cyclohexanecarboxamide], the class is listed as 1 (Class 1: The value of percent of control at 10^−7 M was less than 40% or the value of IC50 was less than 50 nM.). The same measure, in the same setting: the same measure for `Cc1cnc(N[C@H]2CC[C@@H](CNC(=O)c3cc(Cl)cc(Cl)c3)CC2)nc1N(C)C` [compound 2706, 3,5-dichloro-N-[(cis-4-{[4-(dimethylamino)-5-methylpyrimidin-2-yl]amino}cyclohexyl)methyl]benzamide]: 1 (Class 1: The value of percent of control at 10^−7 M was less than 40% or the value of IC50 was less than 50 nM.); for `CCOc1ccc(C(=O)N[C@H]2CC[C@@H](Nc3nc(C)c(C)c(N(C)C)n3)CC2)cc1` [compound 2851]: 3 (Class 3 The value of percent of control at 10^−7 M was more than 60% or the value of IC50 was more than 200 nM.). Same read-out and setting: the same measure for `Cc1cc(N(C)C)nc(N[C@H]2CC[C@@H](NC(=O)c3cccc(OC(C)C)c3)CC2)n1` [compound 2977, N-(cis-4-{[4-(dimethylamino)-6-methylpyrimidin-2-yl]amino}cyclohexyl)-3-isopropoxybenzamide]: 1 (Class 1: The value of percent of control at 10^−7 M was less than 40% or the value of IC50 was less than 50 nM.); for `Cc1cc(N(C)C)nc(NC[C@H]2CC[C@@H](NC(=O)c3ccccc3)CC2)n1` [compound 2732, N-[cis-4-({[4-(dimethylamino)-6-methylpyrimidin-2-yl]amino}methyl)cyclohexyl]benzamide]: 3 (Class 3 The value of percent of control at 10^−7 M was more than 60% or the value of IC50 was more than 200 nM.).

The record behind these values is patent publication US20050197350A1, “Novel quinoline, tetrahydroquinazoline, and pyrimidine derivatives and methods of treatment related to the use thereof” (TAISHO PHARMACEUTICAL CO., LTD., priority 2003, published 2005).
